Among the data in ChEMBL document CHEMBL1146775 (2004) are Relaxation and Contraction values, retold here.

Activity calls are given as the source filed them. A value given as a limit tells only on which side of the number the result lay.

Assay [1] in a line: Maximal rate of vascular endothelium-dependent relaxation at the concentration of 10E-5 M/L; - = no activity. Conditions: Oryctolagus cuniculus.
Assay [2] addresses Muscarinic acetylcholine receptor M3 (Cavia porcellus) (UniProt Q8VH26). The following applies: Ileum.
Assay [3] can be described thus: Maximal rate of vascular endothelium-dependent relaxation at the concentration of 10E-5 M/L; 0-10%. Conditions: Oryctolagus cuniculus.
Assay [4] in a line: Maximal rate of vascular endothelium-dependent relaxation at the concentration of 10E-5 M/L; […]. Conditions: Oryctolagus cuniculus.
Assay [5] is described as follows: Maximal rate of vascular endothelium-dependent relaxation at the concentration of 10E-5 M/L; 30-50%. The following applies: Oryctolagus cuniculus.
A short description of assay [6]: Maximal rate of vascular endothelium-dependent relaxation at the concentration of 10E-5 M/L. The following applies: Oryctolagus cuniculus.

Muscarinic acetylcholine receptor M3 (Cavia porcellus), sequence (Q8VH26 1-587): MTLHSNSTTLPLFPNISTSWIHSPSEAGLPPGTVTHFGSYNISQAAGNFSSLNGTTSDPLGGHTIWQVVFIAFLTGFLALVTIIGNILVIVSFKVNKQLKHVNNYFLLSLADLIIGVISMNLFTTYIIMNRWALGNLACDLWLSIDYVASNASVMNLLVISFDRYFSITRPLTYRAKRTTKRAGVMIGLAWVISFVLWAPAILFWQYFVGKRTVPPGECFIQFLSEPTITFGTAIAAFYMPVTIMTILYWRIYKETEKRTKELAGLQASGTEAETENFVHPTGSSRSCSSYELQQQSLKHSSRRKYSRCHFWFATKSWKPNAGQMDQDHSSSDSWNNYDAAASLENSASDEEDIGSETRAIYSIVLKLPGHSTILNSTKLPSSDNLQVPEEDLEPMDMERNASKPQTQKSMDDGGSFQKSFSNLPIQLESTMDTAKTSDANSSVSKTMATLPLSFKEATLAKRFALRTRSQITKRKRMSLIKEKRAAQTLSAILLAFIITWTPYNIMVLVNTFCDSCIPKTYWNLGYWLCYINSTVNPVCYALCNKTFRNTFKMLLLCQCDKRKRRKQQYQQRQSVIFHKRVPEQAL

For the molecule `N#CC(c1ccc(Cl)c(F)c1)N1CCOCC1` (stereo not given), the Relaxation entry in assay [1] is “inactive”. Moreover, in assay [2], the Contraction entry is “inactive”.

As for `C#CCN1CCOCC1`, in assay [1], the Relaxation entry is “inactive”. For the same molecule, the Contraction entry in assay [2] was “inactive”.

With `CN1CCN(C(C#N)c2cc3c(cc2Cl)OCO3)CC1` (stereo not given), the Relaxation in assay [3] was determined as 10%. Further, in assay [2], the Contraction result is “inactive”. Molecule `CCOP(=O)(OCC)C(c1cc(OC)c(O)c(OC)c1)N1CCN(C)CC1` (stereo not given) registered a Relaxation in assay [4] of 30%. Besides, the Contraction entry in assay [2] was “inactive”. For `CN1CCN(C(C#N)c2ccc(Cl)c(F)c2)CC1` (stereo not given), the Relaxation result in assay [1] was “inactive”. Moreover, the Contraction result in assay [2] is “inactive”. `O=C(CN1CCOCC1)Nc1c(Cl)cccc1Cl`: the Relaxation in assay [4] amounted to 30%. In assay [2], the Contraction entry was “inactive”. On to `COC(=O)CCCCN1CCOCC1`, for which the Relaxation in assay [5] turned out to be 50%. In addition, in assay [2], the Contraction result was “inactive”. As for `COC(=O)C1CN(Cc2ccccc2)CCN1Cc1ccccc1` (stereo not given), in assay [4], the Relaxation is 30%. For the same molecule, the Contraction result in assay [2] is “inactive”. `COC(=O)CCN1CCCCC1`: the Relaxation in assay [3] is 10%. For the same molecule, in assay [2], the Contraction entry is “inactive”.

Turning to `CCOP(=O)(OCC)C(c1ccc(O)cc1)N1CCOCC1` (stereo not given), in assay [3], the Relaxation turned out to be 10%. In addition, the Contraction entry in assay [2] is “inactive”. Consider `CN1CCN(CCC#N)CC1`, for which, in assay [1], the Relaxation result was “inactive”. In addition, the Contraction result in assay [2] was “inactive”.

Turning to `CCN(CC)CCC(=O)OC`, the Relaxation result in assay [1] is “inactive”. Also, the Contraction entry in assay [2] was “inactive”.

As to `CN1CCN(C(C#N)c2ccc(F)cc2)CC1` (stereo not given), in assay [5], the Relaxation came to 50%. In addition, the Contraction entry in assay [2] is “inactive”. In the case of `N#CCCN1CCOCC1`, the Relaxation entry in assay [1] is “inactive”. Moreover, in assay [2], the Contraction entry was “inactive”. As for `N#CC(c1ccc2c(c1)OCO2)N1CCOCC1` (stereo not given), in assay [4], the Relaxation is 30%. Also, in assay [2], the Contraction result was “inactive”. `CN1CCN(Cc2nn[nH]n2)CC1` gave a Relaxation in assay [4] of 30%. The Contraction entry in assay [2] was “inactive”. On to `CN1CCN(C(C#N)c2cccs2)CC1` (stereo not given), for which, in assay [4], the Relaxation stood at 30%. In addition, the Contraction entry in assay [2] was “inactive”.

As to `CCOP(=O)(OCC)C(c1ccc(O)c(OC)c1[N+](=O)[O-])N1CCN(C)CC1` (stereo not given), the Relaxation in assay [3] worked out at 10%. For the same molecule, the Contraction result in assay [2] is “inactive”. Consider `Cc1ccc(C(C#N)N2CCN(C)CC2)cc1` (stereo not given), for which the Relaxation in assay [4] was found to be 30%. Also, in assay [2], the Contraction entry was “inactive”. For `COc1cc(C(C#N)N2CCN(C)CC2)cc(OC)c1OC` (stereo not given), the Relaxation in assay [6] is > 50%. Besides, the Contraction result in assay [2] is “inactive”.

Molecule `CCOP(=O)(OCC)C(c1cc([N+](=O)[O-])ccc1O)N1CCOCC1` (stereo not given) had a Relaxation in assay [4] of 30%. Moreover, in assay [2], the Contraction entry was “inactive”. On to `NC(=O)CCN1CCOCC1`, for which the Relaxation result in assay [1] was “inactive”. The Contraction entry in assay [2] was “inactive”.

For the molecule `COC(=O)[C@@H]1C[C@@H](O)CN1`, the Relaxation in assay [4] was determined as 30%. In addition, the Contraction result in assay [2] is “inactive”. Molecule `CN1CCN(C(C#N)c2ccccc2Cl)CC1` (stereo not given) returned a Relaxation in assay [3] of 10%. Also, in assay [2], the Contraction result was “inactive”. In the case of `N#CCN1CCCCC1`, the Contraction result in assay [2] was “inactive”. In assay [3], `CN1C2CC=C(C#N)C1CC2` (stereo not given) displayed a Relaxation of 10%. The Contraction entry in assay [2] is “inactive”. In assay [5], `CCOP(=O)(OCC)C(c1cc(OC)c(O)c(OC)c1)N1CCOCC1` (stereo not given) showed a Relaxation of 50%. Besides, the Contraction result in assay [2] was “inactive”. Take `O=C1CN2CCC1CC2`: the Relaxation result in assay [1] was “inactive”. Besides, the Contraction entry in assay [2] was “inactive”.

Regarding `N#CC(c1ccccc1Cl)N1CCOCC1` (stereo not given), the Relaxation in assay [5] stood at 50%. Also, the Contraction result in assay [2] is “inactive”.

In the case of `N#CC1CN(Cc2ccccc2)CCN1Cc1ccccc1` (stereo not given), the Relaxation in assay [4] is 30%. In assay [2], the Contraction entry was “inactive”. `CCOC(=O)CN1CCN(C)CC1`: the Relaxation in assay [4] stood at 30%. In addition, the Contraction result in assay [2] was “inactive”. As for `CCOC(=O)CN1CCOCC1`, the Relaxation in assay [3] was 10%. For the same molecule, the Contraction result in assay [2] was “inactive”. `CN1C2CC=C(C(N)=O)C1CC2` (stereo not given) had a Relaxation in assay [4] of 30%. For the same molecule, the Contraction result in assay [2] is “inactive”. As to `COC(=O)CCN1CCN(C)CC1`, in assay [1], the Relaxation entry is “inactive”. The Contraction result in assay [2] was “inactive”.

Consider `C=CCN1CCN(C)CC1`, for which the Relaxation in assay [4] amounted to 30%. As to `O/N=C1\CN2CCC1CC2`, the Relaxation result in assay [1] is “inactive”. Further, the Contraction entry in assay [2] was “inactive”. Molecule `CCOP(=O)(OCC)C(c1cc([N+](=O)[O-])ccc1O)N1CCN(C)CC1` (stereo not given) yielded a Relaxation in assay [4] of 30%. For the same molecule, the Contraction entry in assay [2] is “inactive”. In the case of `N#CCCN1CCCCC1`, the Relaxation result in assay [1] was “inactive”. The Contraction entry in assay [2] is “inactive”. Regarding `CN1CCN(CC#N)CC1`, the Relaxation in assay [5] worked out at 50%. Besides, the Contraction entry in assay [2] was “inactive”. For `COc1cc(C(C#N)N2CCN(C)CC2)c([N+](=O)[O-])cc1OC` (stereo not given), the Relaxation in assay [6] was > 50%. For the same molecule, the Contraction entry in assay [2] was “inactive”.

In assay [3], `N#CC(c1ccco1)N1CCOCC1` (stereo not given) came in with a Relaxation of 10%. Also, the Contraction result in assay [2] is “inactive”.

Take `Cc1cccc(C(C#N)N2CCOCC2)c1` (stereo not given): in assay [4], the Relaxation worked out at 30%. The Contraction entry in assay [2] was “inactive”. Consider `CN1CCN(C(C#N)c2cccc(F)c2)CC1` (stereo not given), for which, in assay [5], the Relaxation is 50%. The Contraction entry in assay [2] was “inactive”. Turning to `N#CC(NCc1ccccc1)c1ccc2c(c1)OCO2` (stereo not given), in assay [3], the Relaxation turned out to be 10%. Also, the Contraction entry in assay [2] was “inactive”.

Take `O=C(CCN1CCOCC1)c1ccc([N+](=O)[O-])cc1`: in assay [4], the Relaxation is 30%. The Contraction result in assay [2] is “inactive”. In turn, `Cc1cccc(C(C#N)N2CCN(C)CC2)c1` (stereo not given) registered a Relaxation in assay [3] of 10%. Moreover, the Contraction entry in assay [2] is “inactive”. As for `CCOP(=O)(OCC)C(c1ccc(O)cc1)N1CCN(C)CC1` (stereo not given), the Relaxation in assay [4] worked out at 30%. In addition, the Contraction result in assay [2] is “inactive”.

For the molecule `CN1CCN(C(C#N)c2ccc3c(c2)OCO3)CC1` (stereo not given), the Relaxation in assay [4] was 30%. In addition, the Contraction entry in assay [2] was “inactive”.

Take `Cc1ccc(C(C#N)N2CCOCC2)cc1` (stereo not given): the Relaxation in assay [4] turned out to be 30%. The Contraction entry in assay [2] was “inactive”. The molecule `Cc1ccccc1C(C#N)N1CCOCC1` (stereo not given) gave a Relaxation in assay [4] of 30%. The Contraction entry in assay [2] is “inactive”. For `C#CCN1CCN(C)CC1`, in assay [4], the Relaxation amounted to 30%. Moreover, the Contraction result in assay [2] was “inactive”. For the molecule `N#CC1CC2C(=O)C=CC1N2Cc1ccccc1` (stereo not given), the Relaxation entry in assay [1] was “inactive”. Also, the Contraction result in assay [2] is “inactive”. In assay [4], `CCOP(=O)(OCC)C(c1ccc(O)c(OC)c1)N1CCN(C)CC1` (stereo not given) had a Relaxation of 30%. For the same molecule, the Contraction entry in assay [2] was “inactive”. Turning to `COC(=O)CCCN1CCOCC1`, in assay [1], the Relaxation result was “inactive”. Besides, the Contraction entry in assay [2] was “inactive”. `CCOP(=O)(OCC)C(c1cc(Br)cc(Br)c1O)N1CCN(c2ccccn2)CC1` (stereo not given) gave a Relaxation in assay [4] of 30%. Moreover, the Contraction entry in assay [2] is “inactive”. As to `CN1CCN(CCC(N)=O)CC1`, in assay [1], the Relaxation entry is “inactive”. In assay [2], the Contraction entry is “inactive”. In turn, `N#CC(c1ccccc1F)N1CCOCC1` (stereo not given) registered a Relaxation in assay [4] of 30%. Also, in assay [2], the Contraction entry is “inactive”. As for `N#CC(c1cccs1)N1CCOCC1` (stereo not given), in assay [3], the Relaxation is 10%. The Contraction entry in assay [2] is “inactive”. `CCOP(=O)(OCC)C(c1ccc(O)c(OC)c1[N+](=O)[O-])N1CCOCC1` (stereo not given) came in with a Relaxation in assay [3] of 10%. The Contraction entry in assay [2] was “inactive”.

Turning to `N#CC1(O)CN2CCC1CC2` (stereo not given), the Relaxation result in assay [1] is “inactive”. In addition, the Contraction entry in assay [2] was “inactive”. For `Cc1ccccc1C(C#N)N1CCN(C)CC1` (stereo not given), the Relaxation in assay [3] was 10%. In addition, the Contraction entry in assay [2] is “inactive”. Molecule `CCOP(=O)(OCC)C(c1ccc(O)cc1)N1CCN(c2ccccn2)CC1` (stereo not given) had a Relaxation in assay [3] of 10%. The Contraction entry in assay [2] was “inactive”.

`CN1CCN(C(C#N)c2c(F)cccc2Cl)CC1` (stereo not given) registered a Relaxation in assay [4] of 30%. Moreover, in assay [2], the Contraction entry was “inactive”. In assay [3], `N#CC(c1c(F)cccc1Cl)N1CCOCC1` (stereo not given) showed a Relaxation of 10%. Moreover, the Contraction entry in assay [2] is “inactive”. `CCOP(=O)(OCC)C(c1ccc(O)c(OC)c1)N1CCOCC1` (stereo not given) showed a Relaxation in assay [4] of 30%. The Contraction result in assay [2] was “inactive”. Take `COC(=O)C1CC2C(=O)C=CC1N2Cc1ccccc1` (stereo not given): the Relaxation in assay [3] turned out to be 10%. Further, the Contraction result in assay [2] is “inactive”. For `CNC(=O)CCN1CCOCC1`, in assay [1], the Relaxation result is “inactive”. Besides, the Contraction entry in assay [2] is “inactive”. The molecule `CN1CCN(C(C#N)c2ccco2)CC1` (stereo not given) registered a Relaxation in assay [3] of 10%. Further, the Contraction entry in assay [2] is “inactive”.

Regarding `N#CC(c1cccc(F)c1)N1CCOCC1` (stereo not given), in assay [5], the Relaxation was 50%. Also, the Contraction result in assay [2] was “inactive”. Regarding `CN1CCN(CC(=O)Nc2c(Cl)cccc2Cl)CC1`, the Relaxation in assay [3] was 10%. The Contraction entry in assay [2] is “inactive”.

With `COc1cc(C(C#N)N2CCOCC2)cc(OC)c1OC` (stereo not given), the Relaxation in assay [5] was found to be 50%. For the same molecule, in assay [2], the Contraction entry was “inactive”. In the case of `N#CC(c1ccc(F)cc1)N1CCOCC1` (stereo not given), in assay [4], the Relaxation was determined as 30%. For the same molecule, the Contraction entry in assay [2] is “inactive”. On to `CNC(=O)CCN1CCCCC1`, for which, in assay [1], the Relaxation entry was “inactive”. Further, the Contraction result in assay [2] is “inactive”. In assay [3], `N#CC(NCc1ccccc1)c1ccco1` (stereo not given) displayed a Relaxation of 10%. Further, the Contraction entry in assay [2] is “inactive”. As to `CN1CCN(C(C#N)c2ccccc2F)CC1` (stereo not given), the Relaxation in assay [5] stood at 50%. Moreover, in assay [2], the Contraction entry is “inactive”. `N#CCN1CCOCC1` displayed a Relaxation in assay [5] of 50%. Also, the Contraction entry in assay [2] was “inactive”.
